Patent publication US8865622B2, “Use of active ingredients for controlling nematodes in nematode-resistant crops” (priority 2010, dated 2014)

B1: AXMI031: genetically modified Jack soybean variety known to produce a nematicidal protein (gene axmi031, Table 1) (protein, listed as Bacillus thuringiensis)
chain: MNMNNTKLNARALPSFIDYFNGIYGFATGIKDIMNMIFKTDTGGDLTLDEILKNQQLLNEISGKLDGVNGSLNDLIAQGNLNTELSKEILKIANEQNQVLNDVNNKLDAINTMLNIYLPKITSMLSDVMKQNYALSLQIEYLSRQLQEISDKLDVINLNVLINSTLTEITPSYQRIKYVNEKFDKLTFATESTLRAKQGIFNEDSFDNNTLENLTDLAELAKSITKNDVDSFEFYLHTFHDVLIGNNLFGRSALKTASELITKDEIKTSGSEIGKVYSFLIVLTSLQAKAFLTLTTCRKLLGLSDIDYTSIMNEHLNNEKNEFRDNILPALSNKFSNPSYAKTIGSDNYAKVILESEPGYALVGFEIINDPIPVLKAYKAKLKQNYQVDNQSLSEIVYLDIDKLFCPENSEQKYYTKNLTFPDGYVITKITFEKKLNNLIYEATANFYDPSTGDIDLNKKQVESTFPQTDYITMDIGDDDGIYMPLGVISETFLTPINSFGLEVDAKSKTLTLKCKSYLREYLLESDLKNKETGLIAPPNVFISNVVKNWDIEEDSLEPWVANNKNAYVDNTGGIERSKALFTQGDGEFSQFIGDKLKPNTDYIIQYTVKGKPAIYLKNKSTGYITYEDTNGNSEEFQTIAVKFTSETDLSQTHLVFKSQNGYEAWGDNFIILEAKLFETPESPELIKFNDWERFGTTYITGNELRIDHSRGGYFRQSLNIDSYSTYDLSFSFSGLWAKVIVKNSRGVVLFEKVKNNGSSYEDISESFTTASNKDGFFIELTAERTSSTFHSFRDISIKEKIE
B2: AXN2: genetically modified Jack soybean variety known to produce a nematicidal protein (gene axn2, Table 1) (protein)
chain: MASAANAGQLGNLPGVTSMGMGYDVNGLYASPESLLGQPLFDFGGELDSIEIEGRSYTFPRSMHVHTYFHSDFKQDVSKEIEEYREKMSQHVGVSGRYKLFSASLSVDFTTTDQQLTEITYSSTREAHVLWYISLPGAATLRSMLRRDFRDDLNNPNMPAMELFKRYGPYYISEAAVGGRLDYSAASKTLKMDSSQSLSTTAEMSYKALVGEIKIEHGSEMEKQVNSFRSNSTIRLTATGGKPGMTDRILHGPDSQQAFSQWAESLLDYATLMDFSTESLQPIWALADKPERRVELEDAFPEFMKQSQQSIPKVDKVLLMDARPPMVKAGEDSGSGASEDLAVFNPSTSNGYKMVGQFGQRNHASVADGHAPIFKDLFDLGVLKAPVGWQRVWDDAGSGKSKDYACWRAIPPQGYRALGDVMMLATSGYNPPNLPDYVCVHQSLCADVQTLQNRVWWDKGTGARKDVSLWQPGAAGAVASSCFAGVPNYNNPPNSGDIERLRGSIACVKTSAIASM
modifications: AXMI-205(trun20)

Columns and labels:
[1] = system: Jack soybean plants (nontransgenic, AXN2, AXMI031); test: Plant height of soybean plants in the SCN pot test; format: in vivo
Experimental: (§1) Two tests were planted with Jack (an SCN resistant soybean variety with PI 88788 resistance) and two genetically modified Jack varieties (AXN2 and AXMI031) known to produce a nematicidal protein. The seed were treated with a color/coating base or the same base plus one of two different rates of fluopyram (experiment 1 used 0.075 mg fluopyram/seed and experiment 2 used 0.15 mg fluopyram/seed). The SCN used to inoculate both tests were collected from an inbred colony (OP50) with the ability to overcome PI 88788 resistance.
(§2) Tests were conducted as non-randomized blocks with a minimum of 10 replicates. Seed were planted in individual 4″ clay pots with coarse sand and inoculated with approximately 20,000 OP50 juveniles in ten equal inoculations beginning at planting and again approximately every third day. Plants were maintained in a germination chamber. Blocks were rotated approximately every third day to minimize potential influence of environmental variance. Two months after planting, plants were harvested and cysts were collected and counted to evaluate the efficacy of the nematicide and traits, both individually and in combination with each other.

[2] = system: SCN (inbred colony OP50, able to overcome PI 88788 resistance); test: SCN cyst count on soybean plants grown from treated seed, pot test in germination chamber; format: in vivo; conditions: for reduction of SCN populations: nontransgenic Jack plants, cysts counted two months after planting; for percent reduction of average number of cysts compared to Jack: base (color/coating) treatment only, trait effect
Experimental: as §1, §2

| Molecule | effect on average plant height ([1]; both genetically modified varieties (Axn2, Axmi031), both experiments (0.075 and 0.15 mg/seed)) | effect on average plant height ([1]; nontransgenic control Jack plants, both experiments) | reduction of SCN populations ([2]; first experiment, 0.075 mg fluopyram/seed) | approximate reduction (SCN) provided by fluopyram ([2]; high rate (0.15 mg/seed), transgenic Axmi031 plants) | approximate reduction (SCN) provided by fluopyram ([2]; high rate (0.15 mg/seed), transgenic Axn2 plants) | approximate reduction (SCN) provided by fluopyram ([2]; low rate (0.075 mg/seed), transgenic Axmi031 plants) | approximate reduction (SCN) provided by fluopyram ([2]; low rate (0.075 mg/seed), transgenic Axn2 plants) | reduction of SCN populations ([2]; second experiment, 0.15 mg fluopyram/seed) | percent reduction of average number of cysts compared to Jack ([2]; first experiment) | percent reduction of average number of cysts compared to Jack ([2]; second experiment) |
| --- | --- | --- | --- | --- | --- | --- | --- | --- | --- | --- |
| O=C(NCCc1ncc(C(F)(F)F)cc1Cl)c1ccccc1C(F)(F)F [fluopyram, N-{2-[3-chloro-5-(trifluoromethyl)-2-pridinyl]ethyl}-2-(trifluoromethyl)benzamide] | increased average plant height | not having an effect | 26% | ~40% | ~40% | ~20% | ~20% | 43% |  |  |
| B1 |  |  |  |  |  |  |  |  | 92% | 88% |
| B2 |  |  |  |  |  |  |  |  | 20% | 43% |
